Values quoted from earlier work as cited in USRE45822E1, “Oral dosage form comprising a therapeutic agent and an adverse-effect agent” (Purdue Pharma L.P., priority 2001, dated 2015).

Settings: administered orally; retain much of their efficacy

SMILES	duration of action [h]
O=C1CC[C@@]2(O)[C@H]3Cc4ccc(O)c5c4[C@@]2(CCN3CC2CC2)[C@H]1O5 [naltrexone]	~24
C[C@H]1[C@H]2Cc3ccc(O)cc3[C@]1(C)CCN2CC1CC1 [cyclazocine]	~24
